Test [1] concerns the target T1, EGF receptor tyrosine kinase (Homo sapiens, UniProt P00533).
T1 construct: Receptor tyrosine kinase was obtained in partially purified form from A-431 cells; endogenous in cells; host or cells: A-431 cells (human vulval carcinoma), Triton X-100 solubilised pelleted material
In words: Test (a): in vitro inhibition of the enzyme EGF receptor tyrosine kinase (partially purified from A-431 cells). The format is biochemical. Conditions: example values stated as approximate. On the procedure:
(a) An in vitro assay which determines the ability of a test compound to inhibit the enzyme EGF receptor tyrosine kinase. Receptor tyrosine kinase was obtained in partially purified form from A-431 cells (derived from human vulval carcinoma) by the procedures described below which are related to those described by Carpenter et al, J. Biol. Chem., 1979, 254, 4884, Cohen et al, J. Biol. Chem., 1982, 257, 1523 and by Braun et al., J. Biol. Chem., 1984, 259, 2051.
A-431 cells were grown to confluence using Dulbecco's modified Eagle's medium (DMEM) containing 5% fetal calf serum (FCS). The obtained cells were homogenised in a hypotonic borate/EDTA buffer at pH 10.1. The homogenate was centrifuged at 400 g for 10 minutes at 0°-4° C. The supernatant was centrifuged at 25,000 g for 30 minutes at 0°-4° C. The pelleted material was suspended in 30 mM Hepes buffer at pH 7.4 containing 5% glycerol, 4 mM benzamidine and 1% Triton X-100, stirred for 1 hour at 0°-4° C., and recentrifuged at 100,000 g for 1 hour at 0°-4° C. The supernatant, containing solubilised receptor tyrosine kinase, was stored in liquid nitrogen.
For test purposes 40 μl of the enzyme solution so obtained was added to a mixture of 400 μl of a mixture of 150 mM Hepes buffer at pH 7.4, 500 μM sodium orthovanadate, 0.1% Triton X-100, 10% glycerol, 200 μl water, 80 μl of 25 mM DTT and 80 μl of a mixture of 12.5 mM manganese chloride, 125 mM magnesium chloride and distilled water. There was thus obtained the test enzyme solution.
Equal volumes of this solution and a solution of epidermal growth factor (EGF; 20 μg/ml) were mixed.
[y-^32 P]ATP (3000 Ci/mM, 250 μCi) was diluted to a volume of 2 ml by the addition of a solution of ATP (100 μM) in distilled water. An equal volume of a 4 mg/ml solution of the peptide […]in a mixture of 40 mM Hepes buffer at pH 7.4, 0.1% Triton X-100 and 10% glycerol was added.
The test compound/EGF mixture solution (5 μl) was added to the test enzyme solution (10 μl) and the mixture was incubated at 0°-4° C. for 30 minutes. The ATP/peptide mixture (10 μl) was added and the mixture was incubated at 25° C. for 10 minutes. The phosphorylation reaction was terminated by the addition of 5% trichloroacetic acid (40 μl) and bovine serum albumin (BSA; 1 mg/ml, 5 μl). The mixture was allowed to stand at 4° C. for 30 minutes and then centrifuged. An aliquot (40 μl) of the supernatant was placed onto a strip of Whatman p 81 phosphocellulose paper. The strip was washed in 75 mM phosphoric acid (4×10 ml) and blotted dry. Radioactivity present in the filter paper was measured using a liquid scintillation counter (Sequence A). The reaction sequence was repeated in the absence of the EGF (Sequence B) and again in the absence of the test compound (Sequence C).
Receptor tyrosine kinase inhibition was calculated as follows: [formula]

The test system of test [2] is human naso-pharyngeal cancer cell line KB. Briefly: Test (b): in vitro inhibition of EGF-stimulated growth of the human naso-pharyngeal cancer cell line KB. The format is cell-based. Conditions: 72 h, EGF 10 ng/ml, 3 days incubation, MTT, example values stated as approximate. On the procedure:
(b) An in vitro assay which determines the ability of a test compound to inhibit the EGF-stimulated growth of the human naso-pharyngeal cancer cell line KB.
Cell growth was determined after incubation for 3 days by the extent of metabolism of MTT tetrazolium dye to furnish a bluish colour. Cell growth was then determined in the presence of EGF (10 ng/ml) or in the presence of EGF (10 ng/ml) and a test compound at a range of concentrations. An lC50 value could then be calculated.

Test [3] has as its system EGF receptor tyrosine kinase. Conditions: Fry et al., Science, 1994, 265, 1093; cited from earlier work.
Test [4] deals with xenografts of the human vulval epidermoid carcinoma cell line A-431. In words: Test (c): in-vivo inhibition of growth of A-431 xenografts in athymic nude mice. Set-up: species or system human (xenograft in athymic nude mice). The settings on record: Mus musculus, daily dosing, usually oral, tumour volume inhibition relative to untreated controls. On the procedure:
(c) An in-vivo assay in a group of athymic nude mice (strain ONU:Alpk) which determines the ability of a test compound (usually administered orally as a ball-milled suspension in 0.5% polysorbate) to inhibit the growth of xenografts of the human vulval epidermoid carcinoma cell line A-431. A-431 cells were maintained in culture in DMEM supplemented with 5% FCS nd 2 mM glutamine. Freshly cultured cells were harvested by trypsinization and injected subcutaneously (10 million cells/0.1 ml/mouse) into both flanks of a number of donor nude mice. When sufficient tumour material was available (after approximately 9 to 14 days), fragments of tumour tissue were transplanted in the flanks of recipient nude mice (test day 0). […] In some studies the dosing of the test compound was continued beyond test day 19, for example to test day 26. In each case, on the following test day the animals were killed and the final tumour volume was calculated from measurements of the length and width of the tumours. Results were calculated as a percentage inhibition of tumour volume relative to untreated controls.

Test [5] relates to transplanted human mammary carcinoma which expresses EGF receptor tyrosine kinase. The settings on record: athymic nude mice; EGF receptor tyrosine kinase expressing; Toi et al., 1990; cited from earlier work.
Test [6] deals with carcinoma which does not express EGF receptor tyrosine kinase. The settings on record: carcinoma not expressing EGF receptor tyrosine kinase; Toi et al., 1990; cited from earlier work.

Where “and” joins values, the source holds several entries; their conditions need not be identical. Equal values may be shown once.

T1 sequence (P00533 25-1210): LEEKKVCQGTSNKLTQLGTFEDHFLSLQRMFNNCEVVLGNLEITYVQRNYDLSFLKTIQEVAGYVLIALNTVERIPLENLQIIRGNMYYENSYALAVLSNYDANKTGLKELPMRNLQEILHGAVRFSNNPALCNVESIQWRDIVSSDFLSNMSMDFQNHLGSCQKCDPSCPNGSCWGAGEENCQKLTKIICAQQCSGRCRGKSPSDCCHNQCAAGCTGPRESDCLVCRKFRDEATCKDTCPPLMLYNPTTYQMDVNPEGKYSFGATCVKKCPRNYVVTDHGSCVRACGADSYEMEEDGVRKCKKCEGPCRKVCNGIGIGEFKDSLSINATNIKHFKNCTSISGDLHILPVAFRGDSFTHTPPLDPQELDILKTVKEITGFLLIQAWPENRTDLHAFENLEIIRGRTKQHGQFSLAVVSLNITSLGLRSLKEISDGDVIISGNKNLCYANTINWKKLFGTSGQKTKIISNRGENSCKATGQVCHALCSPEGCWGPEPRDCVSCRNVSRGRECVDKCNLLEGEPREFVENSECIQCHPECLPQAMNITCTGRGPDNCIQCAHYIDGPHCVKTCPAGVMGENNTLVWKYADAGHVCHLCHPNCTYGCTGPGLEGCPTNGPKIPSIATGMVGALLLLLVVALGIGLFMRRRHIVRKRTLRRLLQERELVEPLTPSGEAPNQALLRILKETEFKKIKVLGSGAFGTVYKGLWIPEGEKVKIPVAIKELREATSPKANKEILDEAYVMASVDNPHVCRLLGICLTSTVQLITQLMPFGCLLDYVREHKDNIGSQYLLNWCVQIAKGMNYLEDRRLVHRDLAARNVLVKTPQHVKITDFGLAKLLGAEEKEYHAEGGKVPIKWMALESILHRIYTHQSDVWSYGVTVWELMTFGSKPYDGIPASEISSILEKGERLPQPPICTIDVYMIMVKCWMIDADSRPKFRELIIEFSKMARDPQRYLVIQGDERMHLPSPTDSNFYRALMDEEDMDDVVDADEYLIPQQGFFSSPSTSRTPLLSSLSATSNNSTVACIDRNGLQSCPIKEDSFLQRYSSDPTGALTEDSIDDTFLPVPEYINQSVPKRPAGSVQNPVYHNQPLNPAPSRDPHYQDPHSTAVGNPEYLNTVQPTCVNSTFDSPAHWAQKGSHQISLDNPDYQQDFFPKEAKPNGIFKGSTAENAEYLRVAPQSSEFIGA

Regarding `COc1cc2ncnc(Nc3ccc(F)c(Cl)c3)c2cc1OCCC1OCCCO1` [Example 8, 4-(3'-chloro-4'-fluoroanilino)-6-[2-(1,3-dioxan-2-yl)ethoxy]-7-methoxyquinazoline], the IC50 – broadly, the concentration that gives 50% inhibition – in test [1] worked out at 5 nM; in test [2], 40 nM.

On to `COc1cc2ncnc(Nc3cccc(Br)c3)c2cc1OC` [4-(3'-bromoanilino)-6,7-dimethoxyquinazoline], for which the “inhibitor of EGF receptor tyrosine kinase (in words)” value in test [3] is “highly potent inhibitor”.

As to `COc1cc2ncnc(Nc3ccc(F)c(Cl)c3)c2cc1OCCCC1OCCO1` [Example 4, 4-(3'-chloro-4'-fluoroanilino)-6-[3-(1,3-dioxolan-2-yl)propoxy]-7-methoxyquinazoline], the IC50 in test [1] was 40 nM; in test [2], 140 nM.

As for `COc1cc2ncnc(Nc3ccc(F)c(Cl)c3)c2cc1OCCC1OCCO1` [Example 3, 4-(3'-chloro-4'-fluoroanilino)-6-[2-(1,3-dioxolan-2-yl)ethoxy]-7-methoxyquinazoline], the IC50 amounted to 10 nM in test [1] and 330 nM in test [2]. The ED50 – broadly, the midpoint of the dose-response relation – in test [4] was roughly 50 mg/kg.

As to `COc1cc2ncnc(Nc3ccc(F)c(Cl)c3)c2cc1OCC1COCO1` (stereo not shown) [Example 5, 4-(3'-chloro-4'-fluoroanilino)-6-(1,3-dioxolan-4-ylmethoxy)-7-methoxyquinazoline], the IC50 worked out at 15 nM in test [1] and 140 nM in test [2].

On to `COc1cc2ncnc(Nc3ccc(F)c(Cl)c3)c2cc1OCC1(C)COC1` [Example 10, 4-(3'-chloro-4'-fluoroanilino)-7-methoxy-6-(3-methyloxetan-3-ylmethoxy)quinazoline], for which the concentration for half-maximal inhibition (IC50) in test [1] is 10 nM and 34 nM; in test [2], 65 nM.

For `O=CN/C=C/c1cc(O)ccc1O` [erbstatin], the “growth of transplanted human mammary carcinoma (in words)” value in test [5] was “specifically attenuates the growth”. Besides, the “growth of another carcinoma (in words)” value in test [6] is listed as “without effect on the growth”.

Turning to `COc1cc2ncnc(Nc3ccc(F)c(Cl)c3)c2cc1OCC1OCCO1` [Example 2, 4-(3'-chloro-4'-fluoroanilino)-6-(1,3-dioxolan-2-ylmethoxy)-7-methoxyquinazoline], the IC50 came out at 10 nM in test [1] and 200 nM in test [2].
